Experimental data reported in the NIST ThermoML archive (doi:10.1021/je3013205).
Numbers after ± are expanded uncertainties.

Assay: xn = mol fraction of the nth substance listed
Settings: 101 kPa, Liquid, Vibrating tube method

For CO [methanol] + NCCO, the mass density (283.15 K, x1 = 1) was 801.254 ± 0.14 kg/m3, the mass density (293.15 K, x1 = 1) was 791.866 ± 0.14 kg/m3 and the mass density (303.15 K, x1 = 1) was 782.43 ± 0.15 kg/m3. The mass density (313.15 K, x1 = 1) was 772.902 ± 0.15 kg/m3, the mass density (323.15 K, x1 = 1) was 763.244 ± 0.15 kg/m3 and the mass density (333.15 K, x1 = 1) was 753.389 ± 0.16 kg/m3.
Work on CO [methanol] + NCCOCCO yielded a mass density (283.15 K, x1 = 1) of 801.254 ± 0.14 kg/m3, a mass density (293.15 K, x1 = 1) of 791.866 ± 0.14 kg/m3 and a mass density (303.15 K, x1 = 1) of 782.43 ± 0.15 kg/m3. The mass density (313.15 K, x1 = 1) was 772.902 ± 0.15 kg/m3, the mass density (323.15 K, x1 = 1) was 763.244 ± 0.15 kg/m3 and the mass density (333.15 K, x1 = 1) was 753.389 ± 0.16 kg/m3.
For OCCO [1,2-ethanediol] + NCCOCCO, the mass density (283.15 K, x1 = 1) was 1119.29 ± 0.33 kg/m3, the mass density (293.15 K, x1 = 1) was 1112.37 ± 0.32 kg/m3 and the mass density (303.15 K, x1 = 1) was 1105.39 ± 0.31 kg/m3. It also gave a mass density (313.15 K, x1 = 1) of 1098.34 ± 0.31 kg/m3, a mass density (323.15 K, x1 = 1) of 1091.21 ± 0.3 kg/m3 and a mass density (333.15 K, x1 = 1) of 1083.99 ± 0.3 kg/m3. The mass density (343.15 K, x1 = 1) was 1076.65 ± 0.29 kg/m3.
For NCCOCCO [2-(2-aminoethoxy)ethanol] + OCCO, the mass density (283.15 K, x2 = 0) was 1063.9 ± 0.97 kg/m3, the mass density (283.15 K, x2 = 0.0999) was 1069.41 ± 0.89 kg/m3 and the mass density (283.15 K, x2 = 0.1998) was 1074.47 ± 0.81 kg/m3. It also gave a mass density (283.15 K, x2 = 0.2998) of 1079.73 ± 0.74 kg/m3, a mass density (283.15 K, x2 = 0.4001) of 1084.82 ± 0.67 kg/m3 and a mass density (283.15 K, x2 = 0.4999) of 1090.24 ± 0.6 kg/m3. For the same compound, the mass density (283.15 K, x2 = 0.5999) was 1095.7 ± 0.54 kg/m3, the mass density (283.15 K, x2 = 0.7002) was 1101.26 ± 0.48 kg/m3 and the mass density (283.15 K, x2 = 0.8) was 1107.46 ± 0.42 kg/m3. The mass density (283.15 K, x2 = 0.8998) was 1113.95 ± 0.37 kg/m3, the mass density (293.15 K, x2 = 0) was 1055.86 ± 0.95 kg/m3 and the mass density (293.15 K, x2 = 0.0999) was 1061.43 ± 0.87 kg/m3. The mass density (293.15 K, x2 = 0.1998) was 1066.58 ± 0.8 kg/m3, the mass density (293.15 K, x2 = 0.2998) was 1071.94 ± 0.72 kg/m3 and the mass density (293.15 K, x2 = 0.4001) was 1077.11 ± 0.66 kg/m3. For the same compound, the mass density (293.15 K, x2 = 0.4999) was 1082.67 ± 0.59 kg/m3, the mass density (293.15 K, x2 = 0.5999) was 1088.26 ± 0.53 kg/m3 and the mass density (293.15 K, x2 = 0.7002) was 1093.92 ± 0.47 kg/m3. For the same compound, the mass density (293.15 K, x2 = 0.8) was 1100.25 ± 0.42 kg/m3, the mass density (293.15 K, x2 = 0.8998) was 1106.86 ± 0.37 kg/m3 and the mass density (303.15 K, x2 = 0) was 1047.8 ± 0.94 kg/m3. The mass density (303.15 K, x2 = 0.0999) was 1053.44 ± 0.86 kg/m3, the mass density (303.15 K, x2 = 0.1998) was 1058.65 ± 0.78 kg/m3 and the mass density (303.15 K, x2 = 0.2998) was 1064.1 ± 0.71 kg/m3. It also gave a mass density (303.15 K, x2 = 0.4001) of 1069.38 ± 0.64 kg/m3, a mass density (303.15 K, x2 = 0.4999) of 1075.06 ± 0.58 kg/m3 and a mass density (303.15 K, x2 = 0.5999) of 1080.79 ± 0.52 kg/m3. The mass density (303.15 K, x2 = 0.7002) was 1086.54 ± 0.46 kg/m3, the mass density (303.15 K, x2 = 0.8) was 1093 ± 0.41 kg/m3 and the mass density (303.15 K, x2 = 0.8998) was 1099.72 ± 0.36 kg/m3. It also gave a mass density (313.15 K, x2 = 0) of 1039.73 ± 0.92 kg/m3, a mass density (313.15 K, x2 = 0.0999) of 1045.41 ± 0.84 kg/m3 and a mass density (313.15 K, x2 = 0.1998) of 1050.69 ± 0.77 kg/m3. It also gave a mass density (313.15 K, x2 = 0.2998) of 1056.23 ± 0.7 kg/m3, a mass density (313.15 K, x2 = 0.4001) of 1061.6 ± 0.63 kg/m3 and a mass density (313.15 K, x2 = 0.4999) of 1067.42 ± 0.57 kg/m3. It also gave a mass density (313.15 K, x2 = 0.5999) of 1073.26 ± 0.51 kg/m3, a mass density (313.15 K, x2 = 0.7002) of 1079.13 ± 0.45 kg/m3 and a mass density (313.15 K, x2 = 0.8) of 1085.7 ± 0.4 kg/m3. The mass density (313.15 K, x2 = 0.8998) was 1092.53 ± 0.35 kg/m3, the mass density (323.15 K, x2 = 0) was 1031.63 ± 0.9 kg/m3 and the mass density (323.15 K, x2 = 0.0999) was 1037.35 ± 0.83 kg/m3. For the same compound, the mass density (323.15 K, x2 = 0.1998) was 1042.69 ± 0.76 kg/m3, the mass density (323.15 K, x2 = 0.2998) was 1048.31 ± 0.69 kg/m3 and the mass density (323.15 K, x2 = 0.4001) was 1053.78 ± 0.62 kg/m3. It also gave a mass density (323.15 K, x2 = 0.4999) of 1059.7 ± 0.56 kg/m3, a mass density (323.15 K, x2 = 0.5999) of 1065.66 ± 0.5 kg/m3 and a mass density (323.15 K, x2 = 0.7002) of 1071.68 ± 0.45 kg/m3. For the same compound, the mass density (323.15 K, x2 = 0.8) was 1078.32 ± 0.39 kg/m3, the mass density (323.15 K, x2 = 0.8998) was 1085.26 ± 0.35 kg/m3 and the mass density (333.15 K, x2 = 0) was 1023.46 ± 0.89 kg/m3. It also gave a mass density (333.15 K, x2 = 0.0999) of 1029.22 ± 0.81 kg/m3, a mass density (333.15 K, x2 = 0.1998) of 1034.63 ± 0.74 kg/m3 and a mass density (333.15 K, x2 = 0.2998) of 1040.32 ± 0.67 kg/m3. For the same compound, the mass density (333.15 K, x2 = 0.4001) was 1045.89 ± 0.61 kg/m3, the mass density (333.15 K, x2 = 0.4999) was 1051.9 ± 0.55 kg/m3 and the mass density (333.15 K, x2 = 0.5999) was 1057.97 ± 0.49 kg/m3. It also gave a mass density (333.15 K, x2 = 0.7002) of 1064.11 ± 0.44 kg/m3, a mass density (333.15 K, x2 = 0.8) of 1070.86 ± 0.39 kg/m3 and a mass density (333.15 K, x2 = 0.8998) of 1077.9 ± 0.34 kg/m3. The mass density (343.15 K, x2 = 0) was 1015.24 ± 0.87 kg/m3, the mass density (343.15 K, x2 = 0.0999) was 1021.03 ± 0.8 kg/m3 and the mass density (343.15 K, x2 = 0.1998) was 1026.5 ± 0.73 kg/m3. For the same compound, the mass density (343.15 K, x2 = 0.2998) was 1032.27 ± 0.66 kg/m3, the mass density (343.15 K, x2 = 0.4001) was 1037.92 ± 0.6 kg/m3 and the mass density (343.15 K, x2 = 0.4999) was 1044.03 ± 0.54 kg/m3. For the same compound, the mass density (343.15 K, x2 = 0.5999) was 1050.2 ± 0.48 kg/m3, the mass density (343.15 K, x2 = 0.7002) was 1056.51 ± 0.43 kg/m3 and the mass density (343.15 K, x2 = 0.8) was 1063.3 ± 0.38 kg/m3. For the same compound, the mass density (343.15 K, x2 = 0.8998) was 1070.45 ± 0.33 kg/m3.
CC(C)O [propan-2-ol] + NCCOCCO gave a mass density (283.15 K, x1 = 1) of 794.005 ± 0.12 kg/m3, a mass density (293.15 K, x1 = 1) of 785.764 ± 0.13 kg/m3 and a mass density (303.15 K, x1 = 1) of 777.284 ± 0.13 kg/m3. For the same compound, the mass density (313.15 K, x1 = 1) was 768.476 ± 0.13 kg/m3, the mass density (323.15 K, x1 = 1) was 759.309 ± 0.14 kg/m3 and the mass density (333.15 K, x1 = 1) was 749.679 ± 0.14 kg/m3. For the same compound, the mass density (343.15 K, x1 = 1) was 739.528 ± 0.14 kg/m3.
